Data taken from US20260250318A1, “COMPOSITIONS AND METHODS FOR CROSSING THE BLOOD BRAIN BARRIER” (VOYAGER THERAPEUTICS, INC., priority 2022, published 2026).

Columns and labels:
Details in all cases: synthetic library passage 3, intravenous, relative to wild-type AAV9
[1] = tested on: brain, spinal cord, and DRG of the NHPs; assay: NGS fold enrichment of synthetic library (passage 3) in NHPs, first cross-species screen; format: in vivo, cynomolgus macaques (Macaca fascicularis)
Summary of the method: (§1)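 Synthetic capsid library (passage 3) was given intravenously […] to NHPs aged 2-4 years and to BALB/c and C57Bl/6 mice (n=3 each, 6-8 weeks). After about 28 days in vivo, tissue RNA was RT-PCR amplified and NGS-sequenced; values are fold enrichment per variant relative to wild-type AAV9.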

brain [2] = assay: NGS fold enrichment of synthetic library (passage 3) in BALB/c mice, first cross-species screen; format: in vivo
Summary of the method: as §1

brain [3] = assay: NGS fold enrichment of synthetic library (passage 3) in C57Bl/6 mice, first cross-species screen; format: in vivo
Summary of the method: as §1

[4] = RNA from spinal cord of NHPs, NGS
[5] = RNA from brain of BALB/c mice, NGS
[6] = RNA from brain of C57Bl/6 mice, NGS

Sequence	Fold enrichment over AAV9 in the brain of NHPs ([1]; RNA from brain of NHPs, NGS) [fold]	Fold enrichment over AAV9 in the spinal cord of NHPs [1, 4] [fold]	Fold enrichment over AAV9 in the brain of Mice (BALB/c) (brain [2]; [5]) [fold]	Fold enrichment over AAV9 in the brain of Mice (C57Bl/6) (brain [3]; [6]) [fold]	Fold enrichment over AAV9 in the brain of NHPs ([1]; RNA NGS, brain of NHPs) [fold]	Fold enrichment over AAV9 in the spinal cord of NHPs ([1]; RNA NGS, spinal cord of NHPs) [fold]	Fold enrichment over AAV9 in the brain of Mice (BALB/c) (brain [2]; RNA NGS, brain of BALB/c mice) [fold]	Fold enrichment over AAV9 in the brain of Mice (C57Bl/6) (brain [3]; RNA NGS, brain of C57Bl/6 mice) [fold]
GRGPKQSNIQNQQT	1.125	0.737	2.490	0.771				
GRGQHVSVANNQQT	1.152	1.896	0.589	1.032				
GRGQIYSTGGNQQT					2.210	11.629	0.743	1.329
GRGQNQQHTGLATT					1.650	6.174	0.691	1.134
GRGQNVSSVHRQQT					5.404	0.000	0.691	1.206
GRGQVVSTHQNQQT					1.607	3.318	0.561	0.931
GRGVITSSGQNHQT					2.004	0.864	0.669	1.656
GRGVQQKLQQNQQT					1.817	0.000	0.823	1.974
GRHLVTASGQNQQT					1.411	2.885	0.404	0.648
GRLSNAHGGQNQQT	1.245	0.839	0.725	1.036				
GRMFSLGSGQNQQT					1.836	8.429	1.174	1.630
GRTDSHTSGQNQQT					2.913	1.510	0.704	1.299
GRVLHSHAGQNQQT					2.513	0.826	0.908	1.294
GSAAMSVRGQNQQT					1.029	2.386	0.287	0.202
GSAGISPSGQNQQT					1.797	1.812	0.622	0.784
GSAQVSMVGQNQQT					1.601	1.332	0.285	0.500
GSDFLGTHGQNQQT					3.171	0.348	0.750	1.038
GSDGKMHRGQNQQT	1.227	0.000	0.776	1.826				
GSDHSHRGGQNQQT	1.174	0.504	0.331	0.818				
GSDQNQQLGYSKQT	1.283	0.000	0.660	0.853				
